Test system: iMG incorporated into the hollow organoid culture
Test: neural inflammation model: iMG incorporated into hollow (tubular) brain organoid culture, drug treatment
Type: cell-based, human
Conditions: for response of iMG incorporated into the hollow organoid culture to external stimulation: recapitulating the in vivo phenotype and functions during neural inflammation, LPS 100 ng/mL 24 hours followed by ATP 2 mM 30 minutes, DAMGO 100 nM 24 hours
Method: To differentiate WA01 cells into microglia, WA01 cells were plated onto Matrigel (Corning) coated 6-well plate at a density of 30-40 colonies per well. The WA01 cells were then differentiated into hematopoietic progenitor cells (HPC) using STEMdiff hematopoietic kit (Stemcell Technologies). The differentiated WA01 derived HPC was then further differentiated into induced microglia (iMG) cells using STEMdiff Microglia Differentiation kit (Stemcell Technologies).
To treat microglia cultured in well plates or microglia embedded in hFO, lipopolysaccharide (LPS) (Sigma) is dosed at 100 ng/mL for 24 hours followed by Adenosine 5′-triphosphate (ATP) (Sigma) at a concentration of 2 mM for 30 minutes. Similarly, DAMGO was given at a concentration of 100 nM for 24 hours. For LY-2828360 (Cayman Chemicals) treatment, microglia treated with DAMGO for 24 hours was refreshed with a medium containing 100 nM LY-2828360 for an additional 24 hours.
To visualize inflammasome activation inside microglia cells, we analyzed NLRP3/ASC colocalization by proximity ligation assay (PLA). Samples were subject to NLRP3/ASC staining following by colocalization PLA using the Duolink in situ red kit (Sigma). After the PLA labeling, samples were then additionally labeled by Iba1/MAP2 before coverslipped with Prolong gold anti-fade DAPI mounting medium (Thermo Fisher) and visualized under an inverted fluorescence microscope (Olympus IX-83).
Conditioned medium of 24 hours (total volume 500 μL) from control conditions or drug-treated conditions were collected from microglia cultured in 24 well plates or incorporated inside tubular organoids. The medium was centrifuged at 2,000 g for 10 minutes to remove cell debris. 400 μL of supernatant was then aspirated and used for ELISA assays. Samples were assayed using ELISA plates for IL-1β (Tribioscience), IL-18 (Tribioscience), and TNF-α (Abcam). Each sample was tested in triplicates and read at 450 nm for absorbance.

Row | Molecule | response of iMG incorporated into the hollow organoid culture to external stimulation | response of the neural inflammation model to treatment (therapeutics screening) (100 nM for additional 24 hours after DAMGO 24 hours)
1 | C[C@@H](NC(=O)[C@@H](N)Cc1ccc(O)cc1)C(=O)NCC(=O)N(C)[C@@H](Cc1ccccc1)C(=O)NCCO [DAMGO] | can respond | 
2 | Cc1nc(N2CCN(C)CC2)c2nc(-c3ccccc3Cl)n(C3CCOCC3)c2n1 [LY282860] |  | evident responses
3 | lipopolysaccharide [LPS] | can respond | 

Reference: patent publication US20240084237A1, “A DEVICE HAVING A SUPPORT STRUCTURE FOR CREATING A HOLLOW, THREE-DIMENSIONAL ORGANOIDS AND CULTURES” (The Trustees of Indiana University, priority 2021, published 2024)
